Common to all, as to format: in vitro ADME
Data set [1] is described as follows: Assay 1. Stability in Simulated Gastric Fluid (SGF). Conditions: SGF pH 1.6 with pepsin, 1 μM, 37° C. Summed up:
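Degradation rate from LC/MS of acetonitrile-quenched aliquots (T0, then regular intervals). Fresh SGF (pH 1.6 NaCl, FaSSIF powder, pepsin 0.1 mg/mL) held compound at 1 μM final, 37° C; 1 mM DMSO stock.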

Data set [2] can be described thus: Assay 3. In vitro Colonic Material Stability Assay. The conditions noted are these: colonic material slurry, anaerobic, 1 or 10 μM.
Data set [3] is described as follows: Assay 2. Stability in Simulated Intestinal Fluid (SIF). Conditions: SIF pH 6.7 with pancreatin, 1 μM, 37° C. In outline: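 Degradation rates came from LC/MS of acetonitrile-quenched samples drawn at intervals, starting at T0. The medium was freshly made pH 6.7 FaSSIF containing pancreatin, and test compound was present at 1 µM while being shaken at 37 °C.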

The structures appear in SMILES notation.

`C[C@@H]1OC(O)[C@@H](OC(=O)CCc2c[nH]c3ccccc23)[C@H](OC(=O)CCc2c[nH]c3ccccc23)[C@@H]1OC(=O)CCc1c[nH]c2ccccc12` (stereo partly drawn) [Compound 62, (2S,3R,4R,5S)-6-hydroxy-4,5-bis({[3-(1H-indol-3-yl)propanoyl]oxy})-2-methyloxan-3-yl 3-(1H-indol-3-yl)propanoate]: the “Assay 1 (SGF) (% Remaining @ 1 hour)” value in data set [1] is “C (>75% of the tested compound remaining)”. The “Assay 3 (% Remaining at 24 h)” value in data set [2] is “C (>75% of the tested compound remaining)”. For the same compound, in data set [3], the “Assay 2 (SIF) (% @ Remaining 4 hours)” value is “A (<25% of the tested compound remaining)”.

In the case of `CCC(=O)O[C@@H]1[C@@H](OC(=O)CC)[C@@H](OC(=O)/C=C/c2c[nH]c3ccccc23)OC[C@H]1OC(=O)CC` [Compound 93, (2R,3R,4S,5R)-3,4,5-tris(propanoyloxy)oxan-2-yl (2E)-3-(1H-indol-3-yl)prop-2-enoate], the “Assay 1 (SGF) (% Remaining @ 1 hour)” value in data set [1] is recorded as “C (>75% of the tested compound remaining)”. For the same compound, the “Assay 3 (% Remaining at 24 h)” value in data set [2] is “A (<25% of the tested compound remaining)”. Besides, the “Assay 2 (SIF) (% @ Remaining 4 hours)” value in data set [3] is on record as “A (<25% of the tested compound remaining)”.

Turning to `O=C(Cc1c[nH]c2ccccc12)Oc1cc(C(=O)O)cc(OC(=O)Cc2c[nH]c3ccccc23)c1OC(=O)Cc1c[nH]c2ccccc12` [Compound 200, 3,4,5-tris({[2-(1H-indol-3-yl)acetyl]oxy})benzoic acid], the “Assay 1 (SGF) (% Remaining @ 1 hour)” value in data set [1] is reported as “C (>75% of the tested compound remaining)”. In addition, the “Assay 3 (% Remaining at 24 h)” value in data set [2] is reported as “A (<25% of the tested compound remaining)”. For the same compound, the “Assay 2 (SIF) (% @ Remaining 4 hours)” value in data set [3] is reported as “A (<25% of the tested compound remaining)”.

Take `CCCC(=O)O[C@@H]1[C@@H](OC(=O)CCC)[C@H](C)O[C@@H](Oc2ccc(N)cc2C(=O)O)[C@@H]1OC(=O)CCC` [Compound 39, 5-amino-2-(((2S,3R,4R,5S,6S)-3,4,5-tris(butyryloxy)-6-methyltetrahydro-2H-pyran-2-yl)oxy)benzoic acid]: the “Assay 1 (SGF) (% Remaining @ 1 hour)” value in data set [1] was “C (>75% of the tested compound remaining)”. Moreover, the “Assay 3 (% Remaining at 24 h)” value in data set [2] is “C (>75% of the tested compound remaining)”. The “Assay 2 (SIF) (% @ Remaining 4 hours)” value in data set [3] was “B (25-75% of the tested compound remaining)”.

Take `CCCC(=O)Oc1ccc(-c2oc3cc(OC(=O)CCC)cc(OC(=O)CCC)c3c(=O)c2OC(=O)CCC)cc1` [Compound 166, 4-[3,5,7-tris(butanoyloxy)-4-oxo-4H-chromen-2-yl]phenyl butanoate]: the “Assay 1 (SGF) (% Remaining @ 1 hour)” value in data set [1] is on record as “B (25-75% of the tested compound remaining)”. Also, the “Assay 3 (% Remaining at 24 h)” value in data set [2] is on record as “A (<25% of the tested compound remaining)”. In addition, the “Assay 2 (SIF) (% @ Remaining 4 hours)” value in data set [3] was “A (<25% of the tested compound remaining)”.

For the compound `CCC(=O)O[C@@H]1O[C@@H](C)[C@H](OC(=O)CC)[C@@H](OC(=O)CC)[C@H]1OC(=O)CC` [Compound 78, (2S,3R,4R,5S,6S)-6-methyl-3,4,5-tris(propanoyloxy)oxan-2-yl propanoate], the “Assay 1 (SGF) (% Remaining @ 1 hour)” value in data set [1] was “B (25-75% of the tested compound remaining)”. In addition, the “Assay 3 (% Remaining at 24 h)” value in data set [2] is recorded as “A (<25% of the tested compound remaining)”. The “Assay 2 (SIF) (% @ Remaining 4 hours)” value in data set [3] was “A (<25% of the tested compound remaining)”.

Take `CCC(=O)O[C@@H]1[C@@H](OC(=O)CC)[C@H](OC)OC[C@H]1OC(=O)CC` [Compound 73, (2R,3R,4S,5R)-2-methoxy-4,5-bis(propanoyloxy)oxan-3-yl propanoate]: the “Assay 1 (SGF) (% Remaining @ 1 hour)” value in data set [1] is recorded as “C (>75% of the tested compound remaining)”. In addition, the “Assay 3 (% Remaining at 24 h)” value in data set [2] is given as “A (<25% of the tested compound remaining)”. In addition, the “Assay 2 (SIF) (% @ Remaining 4 hours)” value in data set [3] is on record as “A (<25% of the tested compound remaining)”.

Take `CCCC(=O)O[C@H]1[C@@H](Oc2ccc(N)cc2C(=O)O)OC[C@@H](OC(=O)CCC)[C@H]1OC(=O)CCC` [Compound 21, 5-amino-2-(((2R,3R,4R,5R)-3,4,5-tris(butyryloxy)tetrahydro-2H-pyran-2-yl)oxy)benzoic acid]: the “Assay 1 (SGF) (% Remaining @ 1 hour)” value in data set [1] is reported as “C (>75% of the tested compound remaining)”. The “Assay 3 (% Remaining at 24 h)” value in data set [2] is “B (25-75% of the tested compound remaining)”. Further, the “Assay 2 (SIF) (% @ Remaining 4 hours)” value in data set [3] is reported as “C (>75% of the tested compound remaining)”.

The values are drawn from US12115178B2, “Acylated active agents and methods of their use for the treatment of autoimmune disorders” (Flagship Pioneering Innovations V, Inc., priority 2018, dated 2024).
